The record followed here is BindingDB's records for doi:10.1007/BF00173012 (Sandoz Pharma, 1994).

*1 amine or outer side, *2 acyl side, *3 side chain or, on linkers, in order; H or OH if unused. Where a SMILES comes first, the peptide text is derived from it. Bridges are numbered along the chain shown (N, C = ends). [ ]: non-standard residue; d: D form. ξ: configuration not given here. Phe(4-Cl) = N[C@@H](Cc1ccc(Cl)cc1)C(=O)O; d2Nal = N[C@H](Cc1ccc2ccccc2c1)C(=O)O; X1 = O=C(C(N[*:1])S[*:3])[*:2]; Ahp = NCCCCCCC(=O)O; ξC = NC(CS)C(=O)O; Mpa = O=C(O)CCS Some results are limits rather than exact numbers.

Assay [1] concerns the target T1, Somatostatin receptor type 5 (Rattus norvegicus, UniProt P30938).
T1 sequence (P30938 whole entry): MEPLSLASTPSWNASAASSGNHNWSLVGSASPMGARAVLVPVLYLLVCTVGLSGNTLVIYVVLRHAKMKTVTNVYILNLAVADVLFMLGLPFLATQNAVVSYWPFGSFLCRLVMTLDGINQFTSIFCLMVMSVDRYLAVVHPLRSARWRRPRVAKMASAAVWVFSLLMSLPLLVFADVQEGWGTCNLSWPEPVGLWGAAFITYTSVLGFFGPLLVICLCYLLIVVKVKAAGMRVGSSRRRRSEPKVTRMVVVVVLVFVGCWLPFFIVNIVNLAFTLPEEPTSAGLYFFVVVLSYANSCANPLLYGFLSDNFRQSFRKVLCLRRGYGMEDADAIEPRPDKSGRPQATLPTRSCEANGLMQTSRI

Assay [2] has as its target Somatostatin receptor type 3 (Mus musculus, UniProt P30935).
The target in assay [3] is Somatostatin receptor type 4 (Mus musculus, UniProt P49660).
Assay [4] has as its target Somatostatin receptor type 2 (Mus musculus, UniProt P30875).
The target in assay [5] is Somatostatin receptor type 1 (Homo sapiens, UniProt P30872).
Somatostatin receptor type 1, sequence (P30872 whole entry): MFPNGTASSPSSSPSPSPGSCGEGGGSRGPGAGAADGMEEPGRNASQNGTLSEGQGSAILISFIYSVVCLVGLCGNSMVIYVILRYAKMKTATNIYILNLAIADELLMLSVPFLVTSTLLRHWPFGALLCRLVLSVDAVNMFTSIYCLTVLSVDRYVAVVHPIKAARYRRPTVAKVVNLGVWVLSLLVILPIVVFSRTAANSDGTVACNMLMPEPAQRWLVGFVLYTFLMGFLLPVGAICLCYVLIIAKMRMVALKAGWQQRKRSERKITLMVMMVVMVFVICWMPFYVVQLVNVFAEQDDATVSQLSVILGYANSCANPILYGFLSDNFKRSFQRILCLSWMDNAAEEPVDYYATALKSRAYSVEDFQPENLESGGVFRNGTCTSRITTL

Somatostatin receptor type 3, sequence (P30935 whole entry): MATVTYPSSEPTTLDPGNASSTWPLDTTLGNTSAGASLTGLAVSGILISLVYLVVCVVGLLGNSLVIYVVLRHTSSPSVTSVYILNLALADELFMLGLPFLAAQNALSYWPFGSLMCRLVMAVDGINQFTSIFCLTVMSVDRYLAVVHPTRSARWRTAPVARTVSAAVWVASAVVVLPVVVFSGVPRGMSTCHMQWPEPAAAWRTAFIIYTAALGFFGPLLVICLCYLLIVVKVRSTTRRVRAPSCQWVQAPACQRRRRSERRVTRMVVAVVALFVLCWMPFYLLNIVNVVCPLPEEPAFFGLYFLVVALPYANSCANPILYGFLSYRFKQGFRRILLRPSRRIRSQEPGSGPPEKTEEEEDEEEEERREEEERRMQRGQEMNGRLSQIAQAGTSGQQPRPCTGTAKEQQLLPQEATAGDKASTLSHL
Somatostatin receptor type 2, sequence (P30875 whole entry): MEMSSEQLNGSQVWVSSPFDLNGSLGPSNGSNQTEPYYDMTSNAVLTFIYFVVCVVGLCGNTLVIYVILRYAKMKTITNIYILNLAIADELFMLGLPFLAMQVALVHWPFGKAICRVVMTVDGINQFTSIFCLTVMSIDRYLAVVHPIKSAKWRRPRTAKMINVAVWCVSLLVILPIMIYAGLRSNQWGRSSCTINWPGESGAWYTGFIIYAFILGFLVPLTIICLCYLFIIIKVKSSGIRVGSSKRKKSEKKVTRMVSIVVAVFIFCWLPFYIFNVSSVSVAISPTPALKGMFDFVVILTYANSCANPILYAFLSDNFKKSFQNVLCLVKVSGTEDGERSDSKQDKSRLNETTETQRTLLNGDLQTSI
Somatostatin receptor type 4, sequence (P49660 whole entry): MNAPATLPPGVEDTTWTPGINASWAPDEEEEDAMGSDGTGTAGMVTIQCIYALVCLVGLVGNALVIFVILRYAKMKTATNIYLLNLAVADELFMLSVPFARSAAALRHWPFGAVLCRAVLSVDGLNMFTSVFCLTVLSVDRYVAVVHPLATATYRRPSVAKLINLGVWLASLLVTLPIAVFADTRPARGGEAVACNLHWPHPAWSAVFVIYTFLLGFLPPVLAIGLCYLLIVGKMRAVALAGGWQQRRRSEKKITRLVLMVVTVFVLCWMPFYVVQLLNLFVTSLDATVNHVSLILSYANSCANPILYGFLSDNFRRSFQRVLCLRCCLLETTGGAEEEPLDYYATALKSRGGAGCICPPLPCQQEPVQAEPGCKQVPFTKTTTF

Regarding `C[C@@H](O)[C@@H]1NC(=O)[C@H](CCCCN)NC(=O)[C@@H](Cc2c[nH]c3ccccc23)NC(=O)[C@H](Cc2ccccc2)NC(=O)[C@@H]2CSSCC(NC1=O)C(=O)NCCCCCCC(=O)N2` [(1R,4S,7S,10R,13S,16R)-4-[(R)-1-Hydroxyethyl]-7-(4-aminobutyl)-10-(1H-indole-3-ylmethyl)-13-benzyl-28,29-dithia-2,5,8,11,14,17,25-heptaazabicyclo[14.10.4]triacontane-3,6,9,12,15,18,26-heptone] (cyclo([Ahp]CF[dW]KT[ξC]); disulfide 2-7), the figures for the Ki in assay [1], in assay [2] and in assay [3] were 1.2 nM, 0.07 nM and 1000 nM, respectively.

For the molecule `CC(C)[C@@H]1NC(=O)[C@H](CCCCN)NC(=O)[C@@H](Cc2c[nH]c3ccccc23)NC(=O)[C@H](Cc2ccc(O)cc2)NC(=O)[C@@H](NC(=O)[C@H](N)Cc2ccccc2)CSSC[C@@H](C(=O)N[C@@H](Cc2c[nH]c3ccccc23)C(N)=O)NC1=O` [CAS_71306] (H-[dF]CY[dW]KVCW-NH2; disulfide 2-7), the Ki in assay [4] was determined as 0.1 nM; in assay [2] it was 22.9 nM; in assay [3], 170 nM.

Take `CC(C)[C@@H]1NC(=O)[C@H](CCCCN)NC(=O)[C@@H](Cc2c[nH]c3ccccc23)NC(=O)[C@H](Cc2ccc(O)cc2)NC(=O)CCSSC(C(=O)N[C@@H](Cc2ccccc2)C(N)=O)NC1=O` (some centres not stated) [CAS_117580-24-2] ([Mpa]Y[dW]KV[X1]F-NH2; disulfide 1-6): the Ki in assay [1] stood at 3.89 nM; in assay [4] it was 355 nM; in assay [2], 245 nM; in assay [3], 363 nM.

For `CC(C)[C@H](NC(=O)[C@H](CCCCN)NC(=O)[C@@H](Cc1c[nH]c2ccccc12)NC(=O)[C@H](Cc1ccc(O)cc1)NC(=O)[C@H](Cc1ccccc1)NC(=O)[C@H](N)Cc1ccccc1)C(=O)N[C@@H](Cc1ccccc1)C(=O)N[C@H](Cc1ccc2ccccc2c1)C(N)=O` [CAS_150155-61-6] (H-[dF]FY[dW]KVF[d2Nal]-NH2), the Ki is 42.6 nM in assay [1]; above 10000 nM in assay [4]; 0.01 nM in assay [2]; 1000 nM in assay [5]; 158 nM in assay [3].

On to `C[C@@H](O)[C@@H]1NC(=O)[C@H](Cc2ccc(O)cc2)NC(=O)[C@H]([C@@H](C)O)NC(=O)[C@H](CCCCN)NC(=O)[C@H](Cc2c[nH]c3ccccc23)NC(=O)[C@H](Cc2ccccc2)NC(=O)[C@H](Cc2ccccc2)NC(=O)[C@H](CC(N)=O)NC(=O)[C@H](CCCCN)NC(=O)CCCCC[C@@H](C(=O)O)NC(=O)[C@H](CO)NC1=O` [CGP-23996], for which the Ki turned out to be 1 nM in assay [4], 0.6 nM in assay [2], 100 nM in assay [5] and 1.41 nM in assay [3].

Consider `C[C@@H](O)[C@H](NC(=O)[C@@H]1CSSC[C@H](NC(=O)[C@H](N)Cc2ccc3ccccc3c2)C(=O)N[C@@H](Cc2ccc(O)cc2)C(=O)N[C@H](Cc2c[nH]c3ccccc23)C(=O)N[C@@H](CCCCN)C(=O)N[C@@H]([C@@H](C)O)C(=O)N1)C(N)=O` [D-Nal-c[Cys-Tyr-D-Trp-Lys-Thr-Cys]-Thr-NH2], for which the Ki in assay [4] is 0.01 nM.

`C[C@@H](O)[C@@H]1NC(=O)[C@H](Cc2ccccc2)NC(=O)[C@H]([C@@H](C)O)NC(=O)[C@H](CCCCN)NC(=O)[C@@H](Cc2c[nH]c3ccccc23)NC(=O)[C@H](Cc2ccccc2)NC(=O)[C@H](Cc2ccc(Cl)cc2)NC(=O)[C@H](CC(N)=O)NC(=O)[C@H](CCCCN)NC(=O)[C@@H](N)CSSC[C@@H](C(=O)O)NC(=O)[C@H](CO)NC1=O` [EC5-21] (H-CKN[Phe(4-Cl)]F[dW]KTFTSC-OH; disulfide 1-12): the Ki was 0.01 nM in assay [4] and 1.81 nM in assay [3].

As usually defined, the Ki is the equilibrium dissociation constant of an inhibitor or competing ligand from its target. Low values mean higher affinity, high ones lower affinity.
